Data as given in patent US20120214862A1, “MODULATION OF FACTOR 7 EXPRESSION” (ISIS Pharmaceuticals, Inc., priority 2009, published 2012).
In the oligonucleotide strings, read from the 5' end, every base follows the letter of its sugar. An asterisk marks phosphorothioate; unmarked linkages are phosphodiester. Other units and linkages are bracketed, terminal groups are in braces. A string of capitals states the bases alone. e = 2'-O-(2-methoxyethyl) (MOE); [5mC] = 5-methylcytosine; d = 2'-deoxy (DNA)

System: human Factor 7 mRNA
Experiment: Antisense inhibition of human Factor 7 mRNA in HepB3 cells, lipofectin, 50 nM, real-time RT-PCR
Format: cell-based
Details: HepB3 cells, lipofectin; for % Inhibition (human Factor 7 mRNA): Example 1, 50 nM, ~24 h, relative to untreated control cells; for % Inhibition of human Factor 7 mRNA levels: 50 nM antisense oligonucleotide, approximately 24 hours, primer probe set RTS 2927, relative to untreated control
Outline: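 4,000 cells/well; ~24 h exposure; RNA isolated; probe set RTS 2927; normalised to RIBOGREEN® total RNA; % inhibition vs untreated.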

## 407927 (antisense eA*eG*eG*eT*eA*dA*dG*dG*dA*dG*dG*d[5mC]*dT*d[5mC]*dA*eG*e[5mC]*eT*eG*eG) [compound 407927]
  % Inhibition (human Factor 7 mRNA): 55%

## 407928 (antisense e[5mC]*eT*eT*eG*eG*d[5mC]*dT*dG*dA*dA*dG*dG*dG*dA*dG*eG*eT*eA*eA*eG) [compound 407928]
  % Inhibition (human Factor 7 mRNA): 55%

## 407929 (antisense eG*e[5mC]*eA*eG*eA*dG*d[5mC]*dA*dG*d[5mC]*dA*dG*d[5mC]*d[5mC]*dT*eG*eA*eG*eG*e[5mC]) [compound 407929]
  % Inhibition (human Factor 7 mRNA): 53%

## 407930 (antisense e[5mC]*eA*eA*eT*eG*dA*dA*dG*dG*d[5mC]*dA*dG*dA*dG*d[5mC]*eA*eG*e[5mC]*eA*eG) [compound 407930]
  % Inhibition (human Factor 7 mRNA): 70%

## 407931 (antisense e[5mC]*eT*eT*e[5mC]*eA*dG*dA*dG*dG*dA*d[5mC]*dA*dG*d[5mC]*dA*e[5mC]*eA*e[5mC]*eA*eT) [compound 407931]
  % Inhibition (human Factor 7 mRNA): 56%

## 407932 (antisense eG*eA*eA*e[5mC]*e[5mC]*dA*dG*dA*dA*dA*dA*dG*dT*dG*dA*eG*eA*eG*e[5mC]*eT) [compound 407932]
  % Inhibition (human Factor 7 mRNA): 55%

## 407933 (antisense eT*eG*eA*eT*eA*dA*dT*dG*dG*dA*dT*dA*dA*dG*dA*eA*e[5mC]*e[5mC]*eA*eG) [compound 407933]
  % Inhibition (human Factor 7 mRNA): 58%

## 407934 (antisense e[5mC]*eT*eG*eA*eA*dG*dT*dG*dA*dA*dG*dA*dT*dG*dA*eT*eA*eA*eT*eG) [compound 407934]
  % Inhibition (human Factor 7 mRNA): 45%

## 407937 (antisense eG*eA*eA*eG*eG*dG*dA*dG*dA*dA*dA*dT*dA*d[5mC]*dA*eT*eT*eT*eG*eG) [compound 407937]
  % Inhibition (human Factor 7 mRNA): 59%

## 407938 (antisense e[5mC]*eA*e[5mC]*e[5mC]*e[5mC]*dA*dG*d[5mC]*dG*dA*dA*dG*dG*dG*dA*eG*eA*eA*eA*eT) [compound 407938]
  % Inhibition (human Factor 7 mRNA): 60%

## 407940 (antisense eT*eG*eT*eG*eA*dA*dG*d[5mC]*dT*dG*dG*dG*dA*dA*dG*e[5mC]*eA*eG*eG*eT) [compound 407940]
  % Inhibition (human Factor 7 mRNA): 62%

## 407941 (antisense eG*eA*eG*eA*e[5mC]*dG*d[5mC]*dA*dG*d[5mC]*d[5mC]*dG*dT*dT*dT*eA*eT*eT*eG*eT) [compound 407941]
  % Inhibition (human Factor 7 mRNA): 65%

## 407942 (antisense e[5mC]*eA*e[5mC]*eA*eG*dG*dT*dG*dT*dG*d[5mC]*dG*dG*dA*dG*eG*eA*eG*eA*e[5mC]) [compound 407942]
  % Inhibition (human Factor 7 mRNA): 41%

## 407943 (antisense eG*e[5mC]*eA*eG*eG*d[5mC]*dA*d[5mC]*d[5mC]*dA*d[5mC]*dA*dG*dG*dT*eG*eT*eG*e[5mC]*eG) [compound 407943]
  % Inhibition (human Factor 7 mRNA): 34%

## 407944 (antisense e[5mC]*e[5mC]*eA*eG*eT*dG*dG*dG*dT*dG*dG*d[5mC]*dA*dG*dG*e[5mC]*eA*e[5mC]*e[5mC]*eA) [compound 407944]
  % Inhibition (human Factor 7 mRNA): 59%

## 407945 (antisense eA*eA*eT*e[5mC]*eA*dT*dG*dG*dG*d[5mC]*dA*dA*d[5mC]*d[5mC]*d[5mC]*eA*eG*eT*eG*eG) [compound 407945]
  % Inhibition (human Factor 7 mRNA): 56%

## 407946 (antisense eT*e[5mC]*e[5mC]*eA*eA*dA*dA*dA*dT*dG*dA*dA*dT*d[5mC]*dA*eT*eG*eG*eG*e[5mC]) [compound 407946]
  % Inhibition (human Factor 7 mRNA): 5%

## 407950 (antisense eA*eG*e[5mC]*eT*eT*d[5mC]*d[5mC]*dA*dT*dG*dT*dG*dA*dG*dG*eG*eT*eT*e[5mC]*eA) [compound 407950]
  % Inhibition (human Factor 7 mRNA): 58%

## 407951 (antisense eA*eA*e[5mC]*eA*eG*d[5mC]*dT*dT*dT*dT*dG*dT*dT*dT*dT*eT*eA*eA*eA*eA) [compound 407951]
  % Inhibition (human Factor 7 mRNA): 0%

## 407952 (antisense eG*eG*eA*eT*e[5mC]*d[5mC]*dT*dG*dG*dG*dA*dG*d[5mC]*dT*dA*e[5mC]*eA*eG*e[5mC]*e[5mC]) [compound 407952]
  % Inhibition (human Factor 7 mRNA): 41%

## 407953 (antisense eA*e[5mC]*eA*eT*e[5mC]*d[5mC]*dA*dA*dT*dT*d[5mC]*d[5mC]*dA*d[5mC]*dA*eG*eG*eA*eT*e[5mC]) [compound 407953]
  % Inhibition (human Factor 7 mRNA): 20%

## 407954 (antisense e[5mC]*eA*eG*eG*eG*dA*dG*dA*dG*dA*dA*d[5mC]*dA*dT*d[5mC]*e[5mC]*eA*eA*eT*eT) [compound 407954]
  % Inhibition (human Factor 7 mRNA): 39%

## 407955 (antisense eT*eG*eT*eG*eA*dA*dA*dT*dA*dT*d[5mC]*dA*dT*dT*dG*eA*e[5mC]*eA*eA*eG) [compound 407955]
  % Inhibition (human Factor 7 mRNA): 3%

## 407956 (antisense eA*eA*e[5mC]*eT*eT*dG*d[5mC]*dA*dT*dT*dT*dA*dG*dT*dG*eA*eT*eG*e[5mC]*eG) [compound 407956]
  % Inhibition (human Factor 7 mRNA): 19%

## 407957 (antisense eG*eG*e[5mC]*e[5mC]*eT*dG*dG*dG*dA*dA*d[5mC]*dT*dT*dG*d[5mC]*eA*eT*eT*eT*eA) [compound 407957]
  % Inhibition (human Factor 7 mRNA): 52%

## 407958 (antisense eG*e[5mC]*e[5mC]*eG*eT*dG*d[5mC]*dT*dT*dG*d[5mC]*d[5mC]*dG*dG*dA*eG*eT*e[5mC]*eT*eG) [compound 407958]
  % Inhibition (human Factor 7 mRNA): 58%

## 407959 (antisense eG*e[5mC]*eA*eG*eG*dG*dA*dT*dG*dG*d[5mC]*dA*dT*d[5mC]*dG*eA*eG*eT*e[5mC]*e[5mC]) [compound 407959]
  % Inhibition (human Factor 7 mRNA): 0%

## 407960 (antisense eG*eT*eG*e[5mC]*e[5mC]*d[5mC]*dA*dG*dG*dA*d[5mC]*dG*dG*d[5mC]*d[5mC]*e[5mC]*eT*eG*e[5mC]*eA) [compound 407960]
  % Inhibition (human Factor 7 mRNA): 53%

## 407961 (antisense eA*eA*eG*eT*eA*dG*dA*dT*dG*dA*dT*dG*d[5mC]*d[5mC]*dT*eG*eA*eG*eT*eG) [compound 407961]
  % Inhibition (human Factor 7 mRNA): 34%

## 407962 (antisense eT*eT*eG*eG*eA*dA*dG*d[5mC]*dA*dG*d[5mC]*d[5mC]*d[5mC]*dA*d[5mC]*eG*eG*e[5mC]*eT*eG) [compound 407962]
  % Inhibition (human Factor 7 mRNA): 41%

## 407963 (antisense eA*eG*eA*eG*e[5mC]*dA*dG*dG*dG*dT*dG*d[5mC]*d[5mC]*dT*dT*eG*eG*eA*eA*eG) [compound 407963]
  % Inhibition (human Factor 7 mRNA): 33%

## 416422 (antisense eA*eG*e[5mC]*eG*eA*d[5mC]*d[5mC]*d[5mC]*d[5mC]*dG*d[5mC]*d[5mC]*dT*dG*d[5mC]*eA*eG*e[5mC]*e[5mC]*eA) [compound 416422]
  % Inhibition of human Factor 7 mRNA levels: 8%

## 416423 (antisense eG*eT*eG*eT*eT*dT*d[5mC]*dT*d[5mC]*d[5mC]*dT*d[5mC]*d[5mC]*dT*dG*eA*eG*eG*e[5mC]*e[5mC]) [compound 416423]
  % Inhibition of human Factor 7 mRNA levels: 51%

## 416424 (antisense eG*eA*eG*eA*e[5mC]*d[5mC]*dA*dT*dG*dA*dT*dG*dA*dA*dA*eT*e[5mC]*eT*e[5mC]*eT) [compound 416424]
  % Inhibition of human Factor 7 mRNA levels: 27%

## 416425 (antisense eA*eA*eG*e[5mC]*eA*dG*dA*dA*dG*dG*d[5mC]*dA*dG*dA*dG*eG*eA*eG*e[5mC]*e[5mC]) [compound 416425]
  % Inhibition of human Factor 7 mRNA levels: 13%
